Measurements taken from PMC6751730 (ACS Omega, 2019).

Key:
lysosomes in A549 cells = conditions: cited from earlier work
HeLa cancer cells = experiment: MTT antiproliferative assay, HeLa; format: cell-based, human; conditions: 24 h drug exposure
HepG2 cancer cells = experiment: MTT antiproliferative assay, HepG2; format: cell-based; conditions: 24 h drug exposure
BEAS-2B normal cells = experiment: MTT antiproliferative assay, normal cells BEAS-2B; format: cell-based; conditions: 24 h drug exposure
A549 cancer cells = experiment: MTT antiproliferative assay, A549; format: cell-based, human; conditions: 24 h drug exposure

SMILES: CCNc1cc2c(cc1C)C1(c3cc(C)c(NCC)cc3O2)c2ccccc2C(=O)N1N [rhodamine 6G hydrazide]
- Colocalization coefficient with lysosome (lysosomes in A549 cells): 0.58

SMILES: CCN(CC)c1ccc2c(c1)Oc1cc(N(CC)CC)ccc1C21c2ccccc2C(=O)N1N [rhodamine B hydrazide]
- Colocalization coefficient with lysosome (lysosomes in A549 cells): 0.62

SMILES: N.N.[Cl][Pt][Cl] [cisplatin]
- IC50 (HeLa cancer cells): 7.5 ± 0.2 µM
- IC50 (HepG2 cancer cells): 22.7 ± 1.1 µM
- IC50 (BEAS-2B normal cells): 42 ± 2.3 µM
- IC50 (A549 cancer cells): 21.3 ± 1.7 µM
